Reference: US8497240B2 (priority 2006, dated 2013)
Where two headings read alike, the source gives them in different places. Ends that are not written are not given here.

Key:
[1] = target: T1, human GIP receptor (Homo sapiens, UniProt P48546); test: biochemical; format: binding
T1 construct: expressed in transfected cells; host or cells: HEK293 (HEK-GIPR), membranes
T1 sequence (P48546 22-466): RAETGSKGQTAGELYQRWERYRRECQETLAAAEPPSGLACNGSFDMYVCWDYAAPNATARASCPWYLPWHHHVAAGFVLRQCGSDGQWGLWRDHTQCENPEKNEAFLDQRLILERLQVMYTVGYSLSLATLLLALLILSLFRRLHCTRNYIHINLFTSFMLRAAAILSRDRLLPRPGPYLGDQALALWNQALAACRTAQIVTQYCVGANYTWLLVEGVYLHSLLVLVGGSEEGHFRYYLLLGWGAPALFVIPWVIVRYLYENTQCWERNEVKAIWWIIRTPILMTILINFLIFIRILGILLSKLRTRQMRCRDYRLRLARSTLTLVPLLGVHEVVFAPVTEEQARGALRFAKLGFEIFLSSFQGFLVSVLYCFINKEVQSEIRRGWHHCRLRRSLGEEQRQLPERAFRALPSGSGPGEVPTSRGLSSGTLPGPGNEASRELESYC

[2] = format: in vivo, NIH/Swiss mice; conditions: 80 nmol/kg, AUC240
Protocol: (§1) In FIG. 3A, bars represent mean±sd, n=6-10. […] Gavage (1.5 g/kg) was given at t=0, Sample was taken at t=30 min. […] In FIG. 3B, points represent mean±sem, n=8-15.
Points represent mean±sem.

[3] = format: in vivo, NIH/Swiss mice
Protocol: as §1
Peptide was injected IP at t=−5 minutes into 4-hour fasted NIH/Swiss female mice. […] In FIG. 17 points represent mean+/−sem. […] Samples were taken at t=60, t=120 and t=180.

[4] = read-out: (% Inh 10 nm, GIP-LF Assay)

Compound	inhibition at 0.01 µM [1, 4] [%]	Basal Glucose Lowering at Peptide Conc. of 80 nmol/kg [2]	OGTT/GL (%) ([3]; 30 nmol/kg)	further results
HGEGTFISDYSIALDKIRQQEFVNWLLAQKPKKIRYS-NH2 [Compound 0601GIP4842]	40.8			
CC[C@H](C)[C@H](NC(=O)[C@H](CO)NC(=O)[C@H](Cc1ccc(O)cc1)NC(=O)[C@H](CC(=O)O)NC(=O)[C@H](CO)NC(=O)[C@@H](NC(=O)[C@H](Cc1ccccc1)NC(=O)[C@@H](NC(=O)CNC(=O)[C@H](CCC(=O)O)NC(=O)[C@@H](C)NC(=O)[C@H](Cc1ccc(O)cc1)NC)[C@@H](C)O)[C@@H](C)CC)C(=O)N[C@@H](C)C(=O)N[C@@H](CCSC)C(=O)N[C@@H](CC(=O)O)C(=O)N[C@@H](CCCCN)C(=O)N[C@H](C(=O)N[C@@H](Cc1c[nH]cn1)C(=O)N[C@@H](CCC(N)=O)C(=O)N[C@@H](CCC(N)=O)C(=O)N[C@@H](CC(=O)O)C(=O)N[C@@H](Cc1ccccc1)C(=O)N[C@H](C(=O)N[C@@H](CC(N)=O)C(=O)N[C@@H](Cc1c[nH]c2ccccc12)C(=O)N[C@@H](CC(C)C)C(=O)N[C@@H](CC(C)C)C(=O)N[C@@H](C)C(=O)N[C@@H](CCC(N)=O)C(=O)N[C@@H](CCCCN)C(=O)N1CCC[C@H]1C(=O)N[C@@H](CO)C(=O)N[C@@H](CO)C(=O)NCC(=O)N[C@@H](C)C(=O)N1CCC[C@H]1C(=O)N1CCC[C@H]1C(=O)N1CCC[C@H]1C(=O)N[C@@H](CO)C(N)=O)C(C)C)[C@@H](C)CC [Compound 0601GIP4238]		−6%, AUC240		OGTT/GL (%) ([3]; 350 nmol/kg): −25%
CC[C@H](C)[C@H](NC(=O)[C@H](CO)NC(=O)[C@H](Cc1ccc(O)cc1)NC(=O)[C@H](CC(=O)O)NC(=O)[C@H](CO)NC(=O)[C@@H](NC(=O)[C@H](Cc1ccccc1)NC(=O)[C@@H](NC(=O)CNC(=O)[C@H](CCC(=O)O)NC(=O)[C@@H](C)NC(=O)[C@@H](N)Cc1ccc(O)cc1)[C@@H](C)O)[C@@H](C)CC)C(=O)N[C@@H](C)C(=O)N[C@@H](CCSC)C(=O)N[C@@H](CC(=O)O)C(=O)N[C@@H](CCCCN)C(=O)N[C@H](C(=O)N[C@@H](Cc1c[nH]cn1)C(=O)N[C@@H](CCC(N)=O)C(=O)N[C@@H](CCC(N)=O)C(=O)N[C@@H](CC(=O)O)C(=O)N[C@@H](Cc1ccccc1)C(=O)N[C@H](C(=O)N[C@@H](CC(N)=O)C(=O)N[C@@H](Cc1c[nH]c2ccccc12)C(=O)N[C@@H](CC(C)C)C(=O)N[C@@H](CC(C)C)C(=O)N[C@@H](C)C(=O)N[C@@H](CCC(N)=O)C(=O)N[C@@H](CCCCN)C(=O)N1CCC[C@H]1C(=O)N[C@@H](CCCCN)C(=O)N[C@@H](CC(C)C)C(=O)N[C@H](C(=O)N[C@@H](CCCCN)C(=O)N[C@@H](CC(C)C)C(=O)N[C@H](C(=O)N[C@@H](CCCCN)C(=O)N[C@@H](CO)C(N)=O)[C@@H](C)CC)[C@@H](C)CC)C(C)C)[C@@H](C)CC [0601GIP4346]		−10%, AUC240	−20, 30%	
CC[C@H](C)[C@H](NC(=O)[C@H](CO)NC(=O)[C@H](Cc1ccc(O)cc1)NC(=O)[C@H](CC(=O)O)NC(=O)[C@H](CO)NC(=O)[C@@H](NC(=O)[C@H](Cc1ccccc1)NC(=O)[C@@H](NC(=O)CNC(=O)[C@H](CCC(=O)O)NC(=O)[C@@H](C)NC(=O)[C@@H](N)Cc1ccc(O)cc1)[C@@H](C)O)[C@@H](C)CC)C(=O)N[C@@H](C)C(=O)N[C@@H](CCSC)C(=O)N[C@@H](CC(=O)O)C(=O)N[C@@H](CCCCN)C(=O)N[C@H](C(=O)N[C@@H](Cc1c[nH]cn1)C(=O)N[C@@H](CCC(N)=O)C(=O)N[C@@H](CCC(N)=O)C(=O)N[C@@H](CC(=O)O)C(=O)N[C@@H](Cc1ccccc1)C(=O)N[C@H](C(=O)N[C@@H](CC(N)=O)C(=O)N[C@@H](Cc1c[nH]c2ccccc12)C(=O)N[C@@H](CC(C)C)C(=O)N[C@@H](CC(C)C)C(=O)N[C@@H](C)C(=O)N[C@@H](CCC(N)=O)C(=O)N[C@@H](CCCCN)C(=O)N1CCC[C@H]1C(=O)N[C@@H](CO)C(=O)N[C@@H](CO)C(=O)NCC(=O)N[C@@H](C)C(=O)N1CCC[C@H]1C(=O)NCC(=O)N1CCC[C@H]1C(=O)N[C@@H](CO)C(N)=O)C(C)C)[C@@H](C)CC [Compound 0601GIP4952]		−1, %	−21, %	
CC[C@H](C)[C@H](NC(=O)[C@H](CCCCN)NC(=O)[C@H](CC(=O)O)NC(=O)[C@H](CC(C)C)NC(=O)[C@H](C)NC(=O)[C@@H](NC(=O)[C@H](CO)NC(=O)[C@H](Cc1ccc(O)cc1)NC(=O)[C@H](CC(=O)O)NC(=O)[C@H](CO)NC(=O)[C@@H](NC(=O)[C@H](Cc1ccccc1)NC(=O)[C@@H](NC(=O)CNC(=O)[C@H](CCC(=O)O)NC(=O)CNC(=O)[C@@H](N)Cc1c[nH]cn1)[C@@H](C)O)[C@@H](C)CC)[C@@H](C)CC)C(=O)N[C@@H](C)C(=O)N[C@@H](CCC(N)=O)C(=O)N[C@@H](CCC(N)=O)C(=O)N[C@@H](CCC(=O)O)C(=O)N[C@@H](Cc1ccccc1)C(=O)N[C@H](C(=O)N[C@@H](CC(N)=O)C(=O)N[C@@H](Cc1c[nH]c2ccccc12)C(=O)N[C@@H](CC(C)C)C(=O)N[C@@H](CC(C)C)C(=O)N[C@@H](C)C(=O)N[C@@H](CCC(N)=O)C(=O)N[C@@H](CCCCN)C(=O)N1CCC[C@H]1C(=O)N[C@@H](CCCCN)C(=O)N[C@@H](CCCCN)C(=O)N[C@H](C(=O)N[C@@H](CCCNC(=N)N)C(=O)N[C@@H](Cc1ccc(O)cc1)C(=O)N[C@@H](CO)C(N)=O)[C@@H](C)CC)C(C)C [Compound 0601GIP4841]	56.6			
CC[C@H](C)[C@H](NC(=O)[C@H](CO)NC(=O)[C@H](Cc1ccc(O)cc1)NC(=O)[C@H](CC(=O)O)NC(=O)[C@H](CO)NC(=O)[C@@H](NC(=O)[C@H](Cc1ccccc1)NC(=O)[C@@H](NC(=O)CNC(=O)[C@H](CC(=O)O)NC(=O)[C@H](CO)NC(=O)[C@@H](N)Cc1ccc(O)cc1)[C@@H](C)O)[C@@H](C)CC)C(=O)N[C@@H](C)C(=O)N[C@@H](CCSC)C(=O)N[C@@H](CC(=O)O)C(=O)N[C@@H](CCCCN)C(=O)N[C@H](C(=O)N[C@@H](Cc1c[nH]cn1)C(=O)N[C@@H](CCC(N)=O)C(=O)N[C@@H](CCC(N)=O)C(=O)N[C@@H](CC(=O)O)C(=O)N[C@@H](Cc1ccccc1)C(=O)N[C@H](C(=O)N[C@@H](CC(N)=O)C(=O)N[C@@H](Cc1c[nH]c2ccccc12)C(=O)N[C@@H](CC(C)C)C(=O)N[C@@H](CC(C)C)C(=O)N[C@@H](C)C(=O)N[C@@H](CCC(N)=O)C(=O)N[C@@H](CCCCN)C(=O)NCCC(=O)N1CCC[C@H]1C(=O)N[C@@H](CO)C(=O)N[C@@H](CO)C(=O)NCC(=O)N[C@@H](C)C(=O)N1CCC[C@H]1C(=O)N1CCC[C@H]1C(=O)N1CCC[C@H]1C(=O)N[C@@H](CO)C(N)=O)C(C)C)[C@@H](C)CC [Compound 0601GIP4395]		−0%, AUC240	−11, 30%	
CC[C@H](C)[C@H](NC(=O)CNC(=O)[C@H](CCCCN)NC(=O)[C@H](Cc1c[nH]c2ccccc12)NC(=O)[C@H](CC(C)C)NC(=O)[C@@H](NC(=O)[C@H](Cc1ccccc1)NC(=O)CNC(=O)[C@H](CCCCN)NC(=O)[C@H](CCC(N)=O)NC(=O)[C@H](C)NC(=O)[C@H](CC(C)C)NC(=O)[C@H](CC(C)C)NC(=O)[C@H](Cc1c[nH]c2ccccc12)NC(=O)[C@H](CC(N)=O)NC(=O)[C@@H](NC(=O)[C@H](Cc1ccccc1)NC(=O)[C@H](CC(=O)O)NC(=O)[C@H](CCC(N)=O)NC(=O)[C@H](CCC(N)=O)NC(=O)[C@H](Cc1c[nH]cn1)NC(=O)[C@@H](NC(=O)[C@H](CCCCN)NC(=O)[C@H](CC(=O)O)NC(=O)[C@H](CCSC)NC(=O)[C@H](C)NC(=O)[C@@H](NC(=O)[C@H](CO)NC(=O)[C@H](Cc1ccc(O)cc1)NC(=O)[C@H](CC(=O)O)NC(=O)[C@H](CO)NC(=O)[C@@H](NC(=O)[C@H](Cc1ccccc1)NC(=O)[C@@H](NC(=O)CNC(=O)[C@H](CCC(=O)O)NC(=O)[C@@H](C)NC(=O)[C@@H](N)Cc1ccc(O)cc1)[C@@H](C)O)[C@@H](C)CC)[C@@H](C)CC)[C@@H](C)CC)C(C)C)C(C)C)C(=O)N[C@@H](CCC(N)=O)C(N)=O [Compound 0601GIP4619]				inhibition at 0.01 µM ([1]; read-out: GIP RBA (% Inh 10 nM)): 84.6%
CC[C@H](C)[C@H](NC(=O)[C@H](CO)NC(=O)[C@H](Cc1ccc(O)cc1)NC(=O)[C@H](CC(=O)O)NC(=O)[C@H](CO)NC(=O)[C@@H](NC(=O)[C@H](Cc1ccccc1)NC(=O)[C@@H](NC(=O)CNC(=O)[C@H](CCC(=O)O)NC(=O)CNC(=O)[C@@H](N)Cc1c[nH]cn1)[C@@H](C)O)[C@@H](C)CC)C(=O)N[C@@H](C)C(=O)N[C@@H](CCSC)C(=O)N[C@@H](CC(=O)O)C(=O)N[C@@H](CCCCN)C(=O)N[C@H](C(=O)N[C@@H](Cc1c[nH]cn1)C(=O)N[C@@H](CCC(N)=O)C(=O)N[C@@H](CCC(N)=O)C(=O)N[C@@H](CC(=O)O)C(=O)N[C@@H](Cc1ccccc1)C(=O)N[C@H](C(=O)N[C@@H](CC(N)=O)C(=O)N[C@@H](Cc1c[nH]c2ccccc12)C(=O)N[C@@H](CC(C)C)C(=O)N[C@@H](CC(C)C)C(=O)N[C@@H](C)C(=O)N[C@@H](CCC(N)=O)C(=O)N[C@@H](CCCCN)C(=O)N1CCC[C@H]1C(=O)N[C@@H](CCCCN)C(=O)N[C@@H](CCCCN)C(=O)N[C@H](C(=O)N[C@@H](CCCNC(=N)N)C(=O)N[C@@H](Cc1ccc(O)cc1)C(=O)N[C@@H](CO)C(N)=O)[C@@H](C)CC)C(C)C)[C@@H](C)CC [Compound 0601GIP4839]	23.9			
HGEGTLISDYSIAMDKIHQQDFVNWLLAQKPKKIRYS-NH2 [Compound 0601GIP4843]	3			
